Test results published in patent publication US20100210682A1, “Repeated Dosing of TRPV1 Antagonists” (ABBOTT LABORATORIES, priority 2009, published 2010).
Values after ≈ are worked out from the molar mass of the structure shown. Marks after values point to notes of the source that are not given here.

Key:
[1] = system: capsaicin-induced flinching behaviors; assay: Capsaicin-induced acute pain (flinching) in rats; type: in vivo; details: rat, acute dosing, 2.5 μg capsaicin into hind paw
Procedure: Rats were placed in individual observation cages. Following an acclimation period of 30 min, the test compound was administered. Two hours later, 2.5 μg of capsaicin in a 10 μL solution of 10% ethanol/90% hydroxypropyl-b-cyclodextrin was injected subcutaneously into the dorsal aspect of the right hind paw. The observation cage was then suspended above mirrors in order to facilitate observation of the rat. […] The number of flinching behaviors of the injured paw was recorded during the 5 minutes observation period. Compound A was dissolved in 100% polyethylene glycol (PEG 400) for oral administration in a 2 mL/kg injection volume. Compounds B, C, and D were dissolved in 10% ethanol, 20% Tween 80 and 70% polyethylene glycol-400 for oral administration in a 2 mL/kg injection volume. All compounds were dosed orally (p.o.) 60 minutes before behavioral testing.

[2] = system: inflammatory thermal hyperalgesia induced by intraplantar administration of CFA; assay: Inflammatory pain model in rats (CFA, thermal hyperalgesia); type: in vivo; details: po; rat, p.o., acute dosing; read-out: ED50, reversal of inflammatory thermal hyperalgesia induced by CFA
Procedure: The response to acute thermal stimulation was determined using a commercially available paw thermal stimulator (UARDG, University of California, San Diego, Calif.). Rats were placed individually in Plexiglass cubicles mounted on a glass surface maintained at 30° C., and allowed a 30 min habituation period. A thermal stimulus, in the form of radiant heat emitted from a focused projection bulb, was then applied to the plantar surface of each hind paw. In each test session, each rat was tested in three sequential trials at approximately 5 min intervals. Paw withdrawal latencies (PWLs) were calculated as the mean of the two shortest latencies. An assay cut-off was set at 20.5 s. Unilateral inflammation was induced by injecting 150 μL of a 50% solution of complete Freund's adjuvant (CFA) (Sigma, St. Louis, Mo.) in physiological saline into the plantar surface of the right hind paw of the rat. The hyperalgesia to thermal stimulation was determined 2 days following CFA injection using the same apparatus as described above for the noxious acute thermal assay. Compound A was dissolved in 100% polyethylene glycol (PEG 400) for oral administration in a 2 mL/kg injection volume. Compounds B, C, and D were dissolved in 10% ethanol, 20% Tween 80 and 70% polyethylene glycol-400 for oral administration in a 2 mL/kg injection volume. […]

[3] = system: MIA-induced osteoarthritic rats; assay: Osteoarthritic pain model in rats (MIA), weight bearing difference; type: in vivo; details: po, 96 h; rat, p.o., acute dosing, 4 days following MIA injection; read-out: ED50, reversal of difference in weight bearing
Procedure: Unilateral knee joint osteoarthritis was induced in the rats by a single intraarticular (i.a.) injection of sodium monoiodoacetate (MIA) (Sigma, St. Louis, Mo.) (3 mg in 0.05 mL sterile isotonic saline) into the joint cavity using a 26 G needle under light (2-4%) halothane (Halocarbon Laboratories, River Edge, N.J.) anesthesia [Bove S E, Calcaterra S L, Brooker R M, Huber C M, Guzman R E, Juneau P L, et al. Weight bearing as a measure of disease progression and efficacy of anti-inflammatory compounds in a model of monosodium iodoacetate-induced osteoarthritis. Osteoarthritis Cartilage 2003; 11:821-30]. […]
MIA-induced nociception can be assessed by measuring differences in weight bearing (WBD) or decrease in grip force (GF) several days to weeks following MIA injection [Bove S E, Calcaterra S L, Brooker R M, Huber C M, Guzman R E, Juneau P L, et al. Weight bearing as a measure of disease progression and efficacy of anti-inflammatory compounds in a model of monosodium iodoacetate-induced osteoarthritis. […]
Differences in weight bearing on the injured vs uninjured hind limb were assessed by placing the animals in an Incapacitance Tester (Linton, Stoelting, Wood Dale, Ill.). […] The animals were allowed to acclimate for approximately 30 s before weight-bearing readings (measured in grams) were recorded. […]

[4] = Plasma levels in osteoarthritic rats after acute and repeated dosing; type: in vivo, rat; details: derived from modeling of PK/PD data from acute and chronic dosing studies
Procedure: In the osteoarthritic pain model, animals were dosed twice-daily for 12 days using a dose that was non-efficacious following a single administration (e.g. 3 μmol/kg p.o. for Compound A). The animals were tested 1 hour after acute dosing (p.o.) and on day 12, 1 hour after oral dosing with either vehicle or the test compound.

SMILES: CC(C)(C)c1ccc2c(c1)CC[C@H]2NC(=O)Nc1cccc2[nH]ncc12 [Compound A, N-[(1R)-5-tert-butyl-2,3-dihydro-1H-inden-1-yl]-N′-1H-indazol-4-ylurea]
- capsaicin-induced flinching behaviors [1]: dose-dependently prevented
- ED50 [2]: 10 µmol/kg
- ED50 [3]: 30 µmol/kg
- Plasma Levels, Chronic ([4]; 3 μmol/kg BID 12 days): 17** at 3 μmol/kg ng/mL
- EC50 ([4]; Rattus norvegicus, osteoarthritic rats): 0.085 µg/mL (≈ 0.244 µM)
